Laboratory results published in patent publication US10174029B2, “Pyrimidine-2,4-diamine derivatives for treatment of cancer” (THOMAS HELLEDAYS STIFTELSE FOR MEDICINSK FORSKNING, priority 2012, dated 2019).

These molecules were tested against MTH1 (Homo sapiens, UniProt P36639) (assay: MTH1 enzymatic assay and IC50 value determination (malachite green)). Conditions: MTH1 4.8 nM, dGTP 100 μM, 15 minutes at 22° C.; group: between 2 μM and 10 μM.
Format: biochemical
In short: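 Malachite green detection of Pi after coupling dGTP hydrolysis to excess E. coli pyrophosphatase; 4.8 nM MTH1, 100 μM dGTP in Tris-acetate buffer with Mg2+ and DTT, 1% DMSO, 15 min at 22 °C. 12-point 1:3 compound series; absorbance at 630 nm; IC50 by four-parameter nonlinear regression.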

Row | Compound | IC50 [µM]
1 | Cc1cccc(-c2cc(NCCC(=O)N3CCOCC3)nc(N)n2)c1C [Example 277, 3-{[2-amino-6-(2,3-dimethylphenyl)pyrimidin-4-yl]amino}-1-(morpholin-4-yl)propan-1-one] | 2 to 10
2 | Cc1cccc(-c2cc(N[C@@H]3CN4CCC3CC4)nc(N)n2)c1C [Example 281, 4-N-[(3S)-1-azabicyclo[2.2.2]octan-3-yl]-6-(2,3-dimethylphenyl)pyrimidine-2,4-diamine] | 2 to 10
3 | Cc1ccc(S(=O)(=O)N2CCOCC2)cc1-c1cc(NCCCN2CCCC2=O)nc(N)n1 [Example 289, 1-[3-({2-amino-6-[2-methyl-5-(morpholine-4-sulfonyl)phenyl]pyrimidin-4-yl}amino)propyl]pyrrolidin-2-one] | 2 to 10
4 | C[C@@H]1[C@H]2C[C@@H](C[C@H]1Nc1cc(-c3cccc(Cl)c3Cl)nc(N)n1)C2(C)C [Example 299, 6-(2,3-dichlorophenyl)-4-N-[(1R,2R,3R,5S)-2,6,6-trimethylbicyclo[3.1.1]heptan-3-yl]pyrimidine-2,4-diamine] | 2 to 10
5 | COc1ccc(C(CNc2cc(-c3cccc(C)c3C)nc(N)n2)N2CCCC2)cc1 (stereo not drawn) [Example 345, 6-(2,3-Dimethylphenyl)-4-N-[2-(4-methoxyphenyl)-2-(pyrrolidin-1-yl)ethyl]pyrimidine-2,4-diamine] | 2 to 10

Same assay, conditions: MTH1 4.8 nM, dGTP 100 μM, 15 minutes at 22° C.; group: less than 200 nM

Row | Compound | IC50 [µM]
6 | CNc1cc(-c2ccc(OC)c(C)c2C)nc(N)n1 [Example 259, 6-(4-methoxy-2,3-dimethylphenyl)-4-N-methylpyrimidine-2,4-diamine] | < 0.2
7 | CNc1cc(-c2ccc(F)c(C)c2C)nc(N)n1 [Example 260, 6-(4-fluoro-2,3-dimethylphenyl)-4-N-methylpyrimidine-2,4-diamine] | < 0.2
8 | Cc1ccccc1-c1cc(NCCc2ccc(Cl)cc2)nc(N)n1 [Example 264, 4-N-[2-(4-chlorophenyl)ethyl]-6-(2-methylphenyl)pyrimidine-2,4-diamine] | < 0.2
9 | Nc1nc(NCCc2ccc(Cl)cc2)cc(-c2cccc3ncccc23)n1 [Example 266, 4-N-[2-(4-chlorophenyl)ethyl]-6-(quinolin-5-yl)pyrimidine-2,4-diamine] | < 0.2
10 | Cc1cccc(-c2cc(NC3CC3c3ccc(Cl)cc3)nc(N)n2)c1C (stereo not drawn) [Example 267, 4-N-[2-(4-chlorophenyl)cyclopropyl]-6-(2,3-dimethylphenyl)pyrimidine-2,4-diamine] | < 0.2
11 | Cc1cccc(-c2cc(NCCc3cccc(O)c3)nc(N)n2)c1C [Example 269, 3-(2-{[2-amino-6-(2,3-dimethylphenyl)pyrimidin-4-yl]amino}ethyl)phenol] | < 0.2
12 | Cc1cccc(-c2cc(NCCNC(=O)OCc3ccccc3)nc(N)n2)c1C [Example 273, benzyl N-(2-{[2-amino-6-(2,3-dimethylphenyl)pyrimidin-4-yl]amino}ethyl)-carbamate] | < 0.2
13 | Cc1cccc(-c2cc(NCCCNC(=O)OC(C)(C)C)nc(N)n2)c1C [Example 275, tert-butyl N-(3-{[2-amino-6-(2,3-dimethylphenyl)pyrimidin-4-yl]amino}propyl)-carbamate] | < 0.2
14 | Cc1cc(CCCNc2cc(-c3cccc(C)c3C)nc(N)n2)n[nH]1 [Example 276, 6-(2,3-dimethylphenyl)-4-N-[3-(5-methyl-1H-pyrazol-3-yl)propyl]pyrimidine-2,4-diamine] | < 0.2
15 | Cc1cccc(-c2cc(NCC3CCCN3C(=O)OC(C)(C)C)nc(N)n2)c1C (stereo not drawn) [Example 282, tert-butyl 2-({[2-amino-6-(2,3-dimethylphenyl)pyrimidin-4-yl]amino}methyl)-pyrrolidine-1-carboxylate] | < 0.2
16 | Cc1cccc(-c2cc(NCC3(c4ccc(Cl)cc4)CC3)nc(N)n2)c1C [Example 295, 4-N-{[1-(4-chlorophenyl)cyclopropyl]methyl}-6-(2,3-dimethylphenyl)pyrimidine-2,4-diamine] | < 0.2
17 | Nc1nc(NCCc2ccc(S(N)(=O)=O)cc2)cc(-c2cccc(Cl)c2Cl)n1 [Example 296, 4-(2-{[2-amino-6-(2,3-dichlorophenyl)pyrimidin-4-yl]amino}ethyl)benzene-1-sulfonamide] | < 0.2
18 | CC1CCN(Cc2cccc(CNc3cc(-c4cccc(Cl)c4Cl)nc(N)n3)c2)CC1 [Example 300, 6-(2,3-Dichlorophenyl)-4-N-({3-[(4-methylpiperidin-1-yl)methyl]phenyl}methyl)-pyrimidine-2,4-diamine] | < 0.2
19 | Nc1nc(NCCc2ccc(O)cc2)cc(-c2cccc(Cl)c2Cl)n1 [Example 301, 4-(2-{[2-Amino-6-(2,3-dichlorophenyl)pyrimidin-4-yl]amino}ethyl)phenol] | < 0.2
20 | Nc1nc(NC23CC4CC(CC2C4)C3)cc(-c2cccc(Cl)c2Cl)n1 [Example 304, 6-(2,3-Dichlorophenyl)-4-N-{tricyclo[3.3.1.0^3,7]nonan-3-yl}pyrimidine-2,4-diamine] | < 0.2
21 | CNc1cc(-c2cccc(NC(=O)c3ncccc3O)c2)nc(N)n1 [Example 308, N-{3-[2-amino-6-(methylamino)pyrimidin-4-yl]phenyl}-3-hydroxypyridine-2-carboxamide] | < 0.2
22 | CNc1cc(-c2cccc(NC(=O)/C=C/CN(C)C)c2)nc(N)n1 [Example 312, (2E)-N-{3-[2-Amino-6-(methylamino)pyrimidin-4-yl]phenyl}-4-(dimethylamino)but-2-enamide] | < 0.2
23 | C=CS(=O)(=O)Nc1cccc(-c2cc(NC)nc(N)n2)c1 [Example 313, N-{3-[2-amino-6-(methylamino)pyrimidin-4-yl]phenyl}ethene-1-sulfonamide] | < 0.2
24 | CNc1cc(-c2cccc(NC(=O)C(C)=O)c2)nc(N)n1 [Example 315, N-{3-[2-Amino-6-(methylamino)pyrimidin-4-yl]phenyl}-2-oxopropanamide] | < 0.2

Row | Compound | IC50 [µM]
25 | CNc1cc(-c2cccc(NC(=O)C(=O)c3ccccc3)c2)nc(N)n1 [Example 316, N-{3-[2-Amino-6-(methylamino)pyrimidin-4-yl]phenyl}-2-oxo-2-phenylacetamide] | < 0.2
26 | C=CC(=O)Nc1ccc(-c2cc(NC)nc(N)n2)cc1 [Example 317, N-{4-[2-Amino-6-(methylamino)pyrimidin-4-yl]phenyl}prop-2-enamide] | < 0.2
27 | CNc1cc(-c2cccc(NC(=O)CO)c2)nc(N)n1 [Example 322, N-{3-[2-Amino-6-(methylamino)pyrimidin-4-yl]phenyl}-2-hydroxyacetamide] | < 0.2
28 | CNc1cc(-c2cccc(NC(=O)C(O)c3ccc(Cl)cc3)c2)nc(N)n1 (stereo not drawn) [Example 323, N-{3-[2-Amino-6-(methylamino)pyrimidin-4-yl]phenyl}-2-(4-chlorophenyl)-2-hydroxyacetamide] | < 0.2
29 | CNc1cc(-c2cccc(NC(=O)C(O)c3ccccc3)c2)nc(N)n1 (stereo not drawn) [Example 324, N-{3-[2-Amino-6-(methylamino)pyrimidin-4-yl]phenyl}-2-hydroxy-2-phenylacetamide] | < 0.2
30 | CNc1cc(-c2cccc(NC(=O)c3ccccc3O)c2)nc(N)n1 [Example 326, N-{3-[2-Amino-6-(methylamino)pyrimidin-4-yl]phenyl}-2-hydroxybenzamide] | < 0.2
31 | CNc1cc(-c2ccc(C(=O)C(F)(F)F)cc2)nc(N)n1 [Example 327, 1-{4-[2-Amino-6-(methylamino)pyrimidin-4-yl]phenyl}-2,2,2-trifluoroethan-1-one] | < 0.2
32 | CNc1cc(-c2ccc(CN)cc2)nc(N)n1 [Example 329, 6-[4-(Aminomethyl)phenyl]-4-N-methylpyrimidine-2,4-diamine] | < 0.2
33 | Cc1cccc(-c2cc(NCCc3ccc(S(N)(=O)=O)cc3)nc(N)n2)c1C [Example 330, 4-(2-{[2-Amino-6-(2,3-dimethylphenyl)pyrimidin-4-yl]amino}ethyl)benzene-1-sulfonamide] | < 0.2
34 | Cc1cccc(-c2cc(NCCc3ccc(S(C)(=O)=O)cc3)nc(N)n2)c1C [Example 331, 6-(2,3-Dimethylphenyl)-4-N-[2-(4-methanesulfonylphenyl)ethyl]pyrimidine-2,4-diamine] | < 0.2
35 | Cc1cccc(-c2cc(NCCc3ccc(C#N)cc3)nc(N)n2)c1C [Example 333, 4-(2-{[2-Amino-6-(2,3-dimethylphenyl)pyrimidin-4-yl]amino}ethyl)benzonitrile] | < 0.2
36 | Cc1cccc(-c2cc(NCCc3ccncc3)nc(N)n2)c1C [Example 334, 6-(2,3-Dimethylphenyl)-4-N-[2-(pyridin-4-yl)ethyl]pyrimidine-2,4-diamine] | < 0.2
37 | Cc1cccc(-c2cc(NCCOc3ccc(C#N)cc3)nc(N)n2)c1C [Example 335, 4-(2-{[2-Amino-6-(2,3-dimethylphenyl)pyrimidin-4-yl]amino}ethoxy)benzonitrile] | < 0.2
38 | Cc1cccc(-c2cc(NCc3ccc(S(N)(=O)=O)cc3)nc(N)n2)c1C [Example 336, 4-({[2-Amino-6-(2,3-dimethylphenyl)pyrimidin-4-yl]amino}methyl)benzene-1-sulfonamide] | < 0.2
39 | Cc1cccc(-c2cc(NCC(C)c3ccc(Cl)cc3)nc(N)n2)c1C (stereo not drawn) [Example 343, 4-N-[2-(4-Chlorophenyl)propyl]-6-(2,3-dimethylphenyl)pyrimidine-2,4-diamine] | < 0.2
40 | Cc1cccc(-c2cc(NCc3ccc(N(C)C)cc3)nc(N)n2)c1C [Example 346, 4-N-{[4-(Dimethylamino)phenyl]methyl}-6-(2,3-dimethylphenyl)pyrimidine-2,4-diamine] | < 0.2
41 | Cc1cccc(-c2cc(NCc3cnn(-c4ccc(F)cc4)c3)nc(N)n2)c1C [Example 348, 6-(2,3-Dimethylphenyl)-4-N-{[1-(4-fluorophenyl)-1H-pyrazol-4-yl]methyl}pyrimidine-2,4-diamine] | < 0.2
42 | Cc1cccc(-c2cc(NCCc3n[nH]c(-c4ccncc4)n3)nc(N)n2)c1C [Example 349, 6-(2,3-dimethylphenyl)-4-N-{2-[5-(pyridin-4-yl)-1H-1,2,4-triazol-3-yl]ethyl}pyrimidine-2,4-diamine] | < 0.2
